This is an account of results in US20190029987A1, “DIMETHYL FUMARATE (DMF) FOR PREVENTION OR TREATMENT OF GOUT, ACNE, DIABETES, VITILIGO AND/OR PYODERMA GANGRENOSUM” (UNIVERSITAT ZURICH, priority 2016, published 2019).

In experiment [1] the test system is Nrf2 target genes (GCLC, GCLM, NAD(P)H dehydrogenase, quinone 1). The experiment can be described thus: Nrf2 target gene expression in HPKs (qRT-PCR). The class given is cell-based, human. The note with it: 10 μM, RNA after 8 h, FIG. 6G. The procedure: Human primary keratinocytes (HPKs) constitutively express pro-IL-1β and inflammasome proteins.
qRT-PCR was performed with the LightCycler 480 SYBR Green Master or the FastStart Universal SYBR Green Master (both Roche, Rotkreuz, Switzerland) using total cellular RNA. Specific primer pairs (Supplementary Table 2) were designed to generate an approximately 150 bp fragment flanking an intron-exon border of the corresponding gene. The LightCycler 480 96-well version (ROCHE, Rotkreuz, Switzerland) or the ViiA 7 Real-Time FOR System (Life Technologies, Carlsbad, US-CA) was used for reaction and detection according the instructions of the manufacturer.
FIG. 6: Bone marrow (BM) cells were isolated from Nrf2-deficient mice and wt litterfnates and differentiated into dendritic cells (DCs). (A, B) After priming with upLPS overnight, BMDCs were treated with the NLRP3 inflammasome activators nigericin (20 μM), zymosan (20 μg/ml), MSU (150 μg/ml), ATP (5 mM) or transfected with poly(dA:dT) (1 μg/ml) for activation of the AIM2 inflammasome. After 6 h, supernatants were analysed for secretion of IL-1β by (A) ELISA or (B) Western blot. Mock-treated but primed BMDCs were analysed for expression of inflammasome proteins and pro-IL-1β at the (C) mRNA level by qRT-PCR or at the (D) protein level by Western blot. (B, D) Duplicates from two individual mice per genotype are shown (biological replicates). (E-G) HPKs were treated with the Nrf2 activators SFN (10 μM), tBHQ (10 μM), DMF (50 μM) and 15d-PGJ2 (10 μM). After 1 h, the cells were harvested and analysed for expression of the indicated proteins using total cell lysates (E) or cytoplasmic and nuclear lysates (F). Western blots for the nuclear protein lamin NC and the cytoplasmic protein α-tubulin served as controls. Specific bands are marked with an asterisk. (G) Total RNA was isolated after 8 h and qRT-PCR was performed for quantification of expression of the Nrf2 target genes glutamate-cysteine ligase, catalytic subunit (GCLC), glutamate-cysteine ligase, modifier subunit (GCLM), and NAD(P)H dehydrogenase, quinone 1 (N001). (A-G) Representative experiments performed at least three times are shown. […] Mann-Whitney test was performed. […] Mann-Whitney test was performed. *P≤0.05
For orientation: In qPCR the cycle at which signal appears reflects the starting amount.

The next experiment deals with T1, NLRP3 inflammasome (Homo sapiens, UniProt Q96P20).
T1 construct: endogenous in cells
T1 sequence (Q96P20 whole entry): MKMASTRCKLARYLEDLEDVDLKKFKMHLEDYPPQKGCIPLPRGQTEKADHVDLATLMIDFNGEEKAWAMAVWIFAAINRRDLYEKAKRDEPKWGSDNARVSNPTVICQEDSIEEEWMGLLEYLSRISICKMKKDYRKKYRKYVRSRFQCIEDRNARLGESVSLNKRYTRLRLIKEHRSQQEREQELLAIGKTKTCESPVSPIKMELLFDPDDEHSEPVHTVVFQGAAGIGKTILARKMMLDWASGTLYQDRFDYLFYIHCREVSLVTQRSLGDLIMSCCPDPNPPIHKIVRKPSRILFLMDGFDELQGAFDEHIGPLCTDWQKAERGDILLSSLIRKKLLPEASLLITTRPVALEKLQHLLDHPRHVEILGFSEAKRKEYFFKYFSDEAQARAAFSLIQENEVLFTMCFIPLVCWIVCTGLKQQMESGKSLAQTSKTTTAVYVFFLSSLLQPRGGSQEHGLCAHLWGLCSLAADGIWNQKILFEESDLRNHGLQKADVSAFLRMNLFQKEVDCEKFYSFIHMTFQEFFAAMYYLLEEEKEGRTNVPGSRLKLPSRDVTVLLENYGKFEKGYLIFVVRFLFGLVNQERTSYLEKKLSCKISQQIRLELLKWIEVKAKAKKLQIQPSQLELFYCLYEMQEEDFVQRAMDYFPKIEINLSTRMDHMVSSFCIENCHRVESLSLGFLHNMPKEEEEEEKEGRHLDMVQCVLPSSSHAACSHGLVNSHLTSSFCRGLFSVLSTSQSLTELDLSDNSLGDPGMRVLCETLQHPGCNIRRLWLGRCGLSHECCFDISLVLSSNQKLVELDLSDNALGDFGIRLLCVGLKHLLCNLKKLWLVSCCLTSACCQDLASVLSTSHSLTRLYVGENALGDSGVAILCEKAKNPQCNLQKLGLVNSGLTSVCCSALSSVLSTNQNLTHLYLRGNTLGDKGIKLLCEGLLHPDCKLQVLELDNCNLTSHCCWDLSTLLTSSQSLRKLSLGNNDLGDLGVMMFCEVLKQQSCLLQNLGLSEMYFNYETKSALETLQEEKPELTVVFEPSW
The experiment can be described thus: Inflammasome activation by nigericin/MSU in differentiated, primed THP-1 cells (IL-1β ELISA, Western blot). The class given is cell-based. The note with it: for accumulation of mature IL-1β in the cells (lysate): THP-1, 10 μM 30 min before nigericin, 2.5 h, FIG. 8D; for IL-1β secretion: THP-1, 10 μM 1 h before 5 μM nigericin or 150 μg/ml MSU, 5 h, FIG. 2B. An excerpt:
To determine the effects of Nrf2 activating compounds on inflammasome activation, the inventors treated keratinocytes with different doses of SFN, tBHQ, DMF or 15d-PGJ2 and irradiated the cells with UVB.
SFN, DMF, 15d-PGJ2, tBHQ, zymosan, ATP, poly(dA:dT), cycloheximide, puromycin, and doxycycline were purchased from Sigma (Munich, Germany), nigericin from Enzo Life Sciences (New York, US-NY), MG132 from Calbiochem (Darmstadt, Germany), and blasticidin from Invivogen (Toulouse, France). Release of IL-1p was determined by ELISA according the instructions of the manufacturer (R&D Systems, Minneapolis, US-MN). MSU crystals were prepared by crystallisation of a supersaturated solution of uric acid under mildly basic conditions. Briefly, uric acid was added to a solution of NaOH, the solution was boiled until the uric acid was dissolved and passed through a filter. NaCl was added and crystallisation was performed at 4° C. Crystals were filtered, then dried using a speedvac, weighted and autoclaved.
(A) HPKs were treated with the indicated concentrations of the Nrf2 activating compound tBHQ irradiated with UVB 30 min later and harvested after 5 h. ELISA measurements were performed for quantification of IL-1β secretion and Western blots for analysis of expression and activation of the indicated proteins. Specific bands are marked with an asterisk. (B) THP-1 cells were differentiated with PMA (27 nM) for 3 d, primed with upLPS (100 ng/ml) overnight, and 1 h before inflammasome activation (5 μM nigericin, 150 μg/ml MSU) treated with SFN (10 μM), 15-PGJ2 (10 μM) or DMF (50 μM) (15-PG: 15-PGJ2). Cells and supernatants were harvested after 5 h and analysed for inflammasome activation by ELISA measurement of IL-1p and Western blots as indicated. (C) Freshly isolated PBMCs from human blood were primed overnight with upLPS (100 ng/ml) and treated with SFN (10 μM), tBHQ (10 μM), DMF (50 μM) or 15-PGJ2 (10 μM) 1 h before inflammasome activation by nigericin (5 μM). ELISA measurement for secretion of IL-1β as readout for inflammasome activation was performed after 5 h. (D) HPKs or (E) differentiated and primed THP-1 cells were pretreated with cycloheximide (CHX, 30 μg/ml) to block protein synthesis for 1 h before SFN (10 μM) was added to the cells and after an additional hour the inflammasome was activated by (D) irradiation with UVB or (E) treatment with nigericin (5 μM). Cells and supernatants were harvested after (D) 6 h or (E) 3.5 h and analysed for inflammasome activation by Western blot as indicated. (A-E) Representative experiments performed at least three times are shown. Statistics: (A-C) Error bars represent the mean±SD of a representative experiment performed in triplicates. One-way ANOVA was performed. **P≤0.01; ***P≤0.001.
(A-C) HPKs were irradiated with (A) UVB or treated with (B) nigericin (5 μM) and cells and supernatants were harvested at different time points as indicated. Western blots for expression and activation of the indicated proteins. Specific bands are marked with an asterisk. (C) Expression of Nrf2 and Nrf2 target genes was determined by qRT-PCR. (D, E) THP-1 cells were differentiated with PMA (27 nM) for 3 d, primed with upLPS (100 ng/ml) overnight and treated with nigericin (5 μM) or MSU (150 μg/ml). Cells and supernatants were harvested at different time points as indicated and analysed for (D) expression and activation of the proteins as indicated by Western blot and (E) expression of Nrf2 and Nrf2 target genes by qRT-PCR. (F) HPKs were transfected with specific siRNAs as indicated (scr: scrambled, c1: caspase-1, K1; Keap1), 2 d later irradiated with UVB or treated with nigericin (5 μM). Cells were harvested after 1 h or 5 h, and lysates were analysed for the expression of the indicated proteins by Western blot.
(In an ELISA, binding on a coated surface is turned into a signal by an enzyme label.)

Regarding `CCCCCC=CC=C1C(=O)C=CC1CC=CCCCC(=O)O` [15d-PGJ2, 15-deoxy-D-prostaglandin J2], the “expression of classical Nrf2 target genes” value in experiment [1] was “induction of classical Nrf2 target genes”. Further, at NLRP3 inflammasome, the “accumulation of mature IL-1β in the cells (lysate)” value was “mature IL-1β did not accumulate” and the IL-1β secretion entry is given as “inhibited IL-1β secretion”.

For the compound `C[S+]([O-])CCCCN=C=S` (centres unmarked) [SFN, sulforaphane], in experiment [1], the “expression of classical Nrf2 target genes” value was “induction of classical Nrf2 target genes”. On NLRP3 inflammasome, the “accumulation of mature IL-1β in the cells (lysate)” value is “mature IL-1β did not accumulate” and the IL-1β secretion entry is recorded as “inhibited IL-1β secretion”. Besides, the “inflammasome inhibition by SFN with protein synthesis blocked by cycloheximide” value at NLRP3 inflammasome (THP-1, CHX 30 μg/ml 1 h before SFN 10 μM, nigericin 5 μM 1 h later, 3.5 h, FIG. 2E) is on record as “did not prevent inflammasome inhibition”. The “dependence of inflammasome inhibition on Keap1” value at NLRP3 inflammasome (THP-1 cells with knockout of Keap1, 10 μM pretreatment, nigericin 5 μM, 3.5 h, FIG. 4H) is recorded as “Keap1 independent”.
